Measurements taken from patent US10562857B2 (AFASCI, Inc., priority 2015, dated 2020).
“Also recorded” adds a separate entry of the source.

What was measured:
[1] = tested on: baclofen-induced absence seizures in mice; assay: Baclofen-induced absence seizures in mice (EEG spike wave discharges); type: in vivo, mouse; details: 30 mg/kg I.P. 30 min before baclofen
From the text: FIG. 11. Effects of EXAMPLE-128 on baclofen-induced absence seizures in mice.
Absence seizures, especially childhood absence epilepsy, is characterized by a brief loss of consciousness and muscle tone as the primary manifestations. Ethosuximide, a weak and non-selective T-type calcium channel inhibitor, is effective in treating only absence seizures (Huguenard J R, 2002); while the GABAB baclofen exacerbates transgenic absence seizure models and alone induces absence seizures in wild-type animals (Han et al., 2012). […] The baclofen-induced brain seizure activity mimics absence seizures.

[2] = tested on: harmaline-induced tremor in mice; assay: Harmaline-induced essential tremor model in mice; type: in vivo, mouse
Description: FIG. 12. Effects of EXAMPLE-128 on harmaline-induced essential tremor model in mice. Harmaline was dissolved in saline and administrated at 10 mg/kg (S.C.) mice (C57BL/6, male, 3-5 months). Ten minutes after tremors occurred, mice were treated with either EXAMPLE-128 (30 mg/kg, I.P.) or vehicle (2% DMSO in 0.5% HPC).
Harmaline can induce tremors modeling human essential tremor manifested as postural and kinetic tremors (Nahab et al., 2012). Harmaline was dissolved in saline and administrated at 10 mg/kg (s.c.) to mice (C57BL/6, male, 3 months) and the mice were immediately returned to homecage monitor with an piezoelectric sensor operated by the SmartCage™ for continual recordings for 60 min. […] Mice were randomly assigned to be treated with EXAMPLE-128 (3, 10 or 30 mg/kg, I.P.) or vehicle (2% DMSO in 0.5% HPC), starting ten min after tremors began, Tremor episode numbers and each episode's duration were offline human scored.

[3] = SafetyScreen 44 ancillary pharmacology panel
From the text: (§1) Moreover, compounds useful in therapeutic formulations may be further screened for undesired side effect activities by utilizing large ancillary pharmacology panel screens, for example, SafetyScreen 44 and the Ames microsomemutagenicity assay (Eurofins-Cerep, US and France).

[4] = tested on: Ames microsomemutagenicity assay; assay: Ames microsome mutagenicity assay; type: cell-based
From the text: as §1

SNI rats = assay: Spared nerve injury (SNI) rats, Hargreaves thermal test; type: in vivo, rat; details: 30 mg/kg, 1 mL I.P.
Description: FIG. 3A. Spared Nerve Injury (SNI) rats' left hindpaw withdrawal latencies in response to thermal stimulation (Hargreaves test). Each SNI rat received either EXAMPLE-106, 107, or 115, (each 30 mg/kg, 1 mL I.P.), or vehicle (2% DMSO in 0.5% HPC). Sham rats also received vehicle I.P. injections. […] 40 seconds were cutoff in order to prevent tissue damage. The sham-vehicle serves as a positive control (n=8 per treatment group).
In additional examples shown here, the analgesic effects were further evaluated in another rat species. Baseline thermal and mechanical thresholds of male rats (Sprague-Dawley rats, 275 g-325 g, Harlan) were taken prior to surgery; baseline thresholds were measured on the rats' left hindpaws. Thirty-two rats underwent the SNI surgery on their left hind leg; 8 rats underwent surgery without injury of the nerves as a sham group. Two weeks post-surgery, the thermal thresholds of each rat were reassessed. […] Each rat received either EXAMPLE-106, -107, -115 (each 30 mg/kg, 1 mL I.P.), or vehicle (2% DMSO in 0.5% HPC). Thermal and mechanical thresholds were measured at 1, 2, 3, 4, 5, 6, 7, and 8 hours post-treatment/dosing. […] The drug actions started around 1 hour post-injection and peaked between 2 and 3 hours, and the drug effects gradually declined to pre-treatment levels over 6-7 hours (FIGS. 3A and B).

CFA mice = assay: Complete Freund's Adjuvant (CFA)-induced inflammatory pain in mice, von Frey test; type: in vivo, mouse; details: 30 mg/kg I.P.
Description: FIG. 7. Effects of EXAMPLE-96, 107 or 115 (each 30 mg/kg, I.P.) or gabapentin (as a benchmark, 100 mg/kg, I.P) on Complete Freund's Adjuvant (CFA)-induced inflammation in male, mice (C57BL/6, ˜2 months old; n=8 mice per group). Mechanical pain threshold assessment of CFA mice's left hindpaws were measured using von Frey monofilament test at 0.5, 1, 2, 4, and 6 hours after treatment.
Because knockout or antisense knockdown of the Cav3.2 isoform produces analgesic effects in neuropathic pain as well as in inflammatory pain in mice (Choi et al., 2007), we used the Complete Freund adjuvant (CFA)-inflammatory pain in mice to investigate the drug effects. EXAMPLE-96, -115, and -107 (each at 30 mg/kg, I.P.) and a reference gabapentin (100 mg/kg, I.P.) was individually administered to mice that had CFA-induced inflammation on their left hindpaws.

[5] = tested on: incision-induced pain in mice; assay: Incision-induced acute pain in mice, von Frey test; type: in vivo, mouse; details: 30 mg/kg I.P.
Description: FIG. 9. Effects of EXAMPLE-116, -118 or ML218 (a reference compound) on incision-induced acute pain in mice (C57BL/6, male, ˜2 months old; n=8 mice per treatment group). Mechanical pain threshold assessment (von Frey monofilament test) of the mice's incision left hindpaws. Each mouse received either EXAMPLE-116, -118, or ML218 (as a reference compound, each 30 mg/kg, I.P.) or vehicle (2% DMSO in 0.5% HPC, I.P.). Mechanical pain responses were measured at 0.5, 1, 2, 4, and 5 hours after treatment.
To further confirm the Cav3 modulator effects on acute pain and neurogenic inflammatory pain, an incision-pain mode in mice was used. Postoperative pain model induced by a deep incision in the hindpaw produces robust mechanical allodynia (Pogatzki et al., 2003). Mechanical pain thresholds were assessed using von Frey monofilament test of the incised left hindpaws. Each mouse received either EXAMPLE-116, -118, ML218 (as a reference compound, each 30 mg/kg, I.P.) or vehicle (2% DMSO in 0.5% HPC, I.P., n=8 mice per treatment group). Mechanical pain responses were measured at 0.5, 1, 2, 4, and 5 hours after treatment.

## CC(C)(C)NC(=O)CN1CCC2(CC1)CC2NC(=O)c1cc(F)cc(Cl)c1 (single isomer, unassigned) [Example 128, (S)—N-(6-(2-(tert-Butylamino)-2-oxoethyl)-6-azaspiro[2.5]octan-1-yl)-3-chloro-5-fluorobenzamide or (R)—N-(6-(2-(tert-Butylamino)-2-oxoethyl)-6-azaspiro[2.5]octan-1-yl)-3-chloro-5-fluorobenzamide]
[1]
  spike wave discharges (SWD) occurring frequency: significantly reduced the SWD occurring frequence; also recorded: significantly reduced the SWD occurring frequency
[2]; harmaline 10 mg/kg S.C., 30 mg/kg I.P.
  total tremor occurring time in 60 minutes: significantly reduced the total tremor occurring time
[2]; harmaline 10 mg/kg s.c., 3, 10 or 30 mg/kg I.P.
  total time spent in tremors: significantly reduced the total time spent in tremors in a dose-dependent manner
[3]
  off-target activities: no significant off-target activities
[4]
  mutagenicity: lack of mutagenicity

## O=C(Nc1nnc(-c2ccccc2)o1)c1ccc(Cl)s1 [Example 115, 5-Chloro-N-(5-phenyl-1,3,4-oxadiazol-2-yl)thiophene-2-carboxamide]
SNI rats
  left hindpaw withdrawal latency to thermal stimulation (hyperalgesia): elevated both thermal and mechanical thresholds; also recorded: reduced hyperalgesia
CFA mice
  mechanical pain threshold, CFA-induced inflammation: showed an analgesic effect in mechanical pain

## CC(C)(C)CCN1C[C@@H]2[C@@H](CNC(=O)c3cc(Cl)cc(Cl)c3)[C@@H]2C1 [ML218, 3,5-Dichloro-N-[[(1α,5α,6-exo,6α)-3-(3,3-dimethylbutyl)-3-azabicyclo[3.1.0]hex-6-yl]methyl]benzamide, reference compound]
[5]
  mechanical pain threshold, incision-induced pain: inhibited incision-induced inflammatory pain
